Data on one molecule can be found in article PMC10766964, “Copper-catalyzed synthesis of pyrazolo[1,5-a]pyrimidine based triazole-linked glycohybrids: mechanistic insights and bio-applications” (Scientific Reports, 2024).

Where two headings read alike, the source gives them in different places.

Data set [1] deals with MDA-MB-231 (human breast cancer) cell line. The data set can be described thus: MTT cell viability assay in MDA-MB-231 cells. The conditions noted are these: 72 h, positive control at 20 nM. Type of data set: cell-based. On the procedure: Thus, we screened the synthesized library of pyrazolo[1,5-a]pyrimidin-7-ols 4a–4i. Anticancer activity (in terms of growth inhibition/decreased cell viability with respect to control) of all synthesized compounds (n = 9) was investigated by MTT assay in MDA-MB-231 (human breast cancer) cell line at different concentrations for 72 h. […] Thus, it was aimed to investigate the anticancer activity of a synthesized library of triazole-linked glycohybrids of pyrazolo[1,5-a]pyrimidines. […] The MTT assay was used to investigate the anticancer activity of twenty-seven synthesized compounds on the growth inhibition and decrement in cell viability of MDA-MB-231 (human breast cancer). Different concentrations were tested for 72 h, and the results were compared to a control. MDA-MB-231, a human breast cancer cell line, was cultured under standard conditions. Specifically, they were grown in Dulbecco’s Modified Eagle’s Medium (DMEM) supplemented with 10% heat-inactivated Fetal Bovine Serum (FBS) and 1% penicillin–streptomycin. The cells were maintained as a monolayer in a 100 mm culture plate and were used for experiments before reaching their 8th passage. Subculturing was performed every third-day using trypsin EDTA treatment. All incubation and maintenance procedures were carried out in a humidified CO2 incubator at 37 °C. To evaluate cell viability, the MTT assay was conducted following standard procedures. After 72 h of cell incubation with or without each compound, cell viability was assessed using MTT (3-(4,5-dimethylthiazol-2-yl)-2,5-diphenyltetrazolium bromide), which is a colorimetric method for determining the number of viable cells in various assays including proliferation, cytotoxicity, or chemosensitivity. The MTT reagent was added to the cells after removal of the medium and incubated for 3 h at 37 °C in the CO2 incubator. The formazan product, which is […] in the tissue culture medium, was dissolved in DMSO, and the absorbance of the formazan product was directly measured at 595 nm using a multimode plate reader without additional processing. The absorbance values are directly proportional to the number of viable cells in culture. The percentage of viable cells in each group was determined relative to the untreated control cells.
(Tetrazolium assays rely on reduction of a dye to a coloured formazan, in cell work by metabolically active cells.)

The test system of data set [2] is MCF-7 (hormone receptor/HR-positive breast cancer cells). The data set can be described thus: MTT cell viability assay in MCF-7 cells. Type of data set: cell-based. The conditions noted are these: Homo sapiens, MCF7; MCF-7, positive control at 20 nM; read-out: Cell viability (%) ± SD. On the procedure:
MDA-MB-231 represents a specific subtype known as triple-negative breast cancer (TNBC). The investigation study was extended with active six hit compounds (9a, 9d, 9h, 10d, 10f, and 11g) in two other different cancer cell lines (MCF-7 and MDA-MB-453), each representing a separate class of breast cancers (MCF-7: hormone receptor/HR-positive; MDA-MB-453: human epidermal growth factor 2 receptor/HER2 positive).
We also included normal mammary epithelial MCF-10A cells in our experiments to confirm if the growth-inhibitory activities of the selected compounds are truly cancer cell-specific. The activity data from MCF-7 and MDA-MB-453 cell lines (tested at 1 µM, 10 µM and 25 µM) and activity data from MCF-10A cell line (tested at 25 µM, 50 µM and 100 µM) are summarized in Table 3.
To evaluate cell viability, the MTT assay was conducted following standard procedures. After 72 h of cell incubation with or without each compound, cell viability was assessed using MTT (3-(4,5-dimethylthiazol-2-yl)-2,5-diphenyltetrazolium bromide), which is a colorimetric method for determining the number of viable cells in various assays including proliferation, cytotoxicity, or chemosensitivity. The MTT reagent was added to the cells after removal of the medium and incubated for 3 h at 37 °C in the CO2 incubator. The formazan product, which is […] in the tissue culture medium, was dissolved in DMSO, and the absorbance of the formazan product was directly measured at 595 nm using a multimode plate reader without additional processing. The absorbance values are directly proportional to the number of viable cells in culture. The percentage of viable cells in each group was determined relative to the untreated control cells.

Data set [3] has as its system MDA-MB-453 (HER2 positive breast cancer cells). The experiment in a line: MTT cell viability assay in MDA-MB-453 cells. Type of data set: cell-based, human. The following applies: Homo sapiens; MDA-MB-453, positive control at 20 nM; read-out: Cell viability (%) ± SD. On the procedure: MDA-MB-231 represents a specific subtype known as triple-negative breast cancer (TNBC). The investigation study was extended with active six hit compounds (9a, 9d, 9h, 10d, 10f, and 11g) in two other different cancer cell lines (MCF-7 and MDA-MB-453), each representing a separate class of breast cancers (MCF-7: hormone receptor/HR-positive; MDA-MB-453: human epidermal growth factor 2 receptor/HER2 positive). […] We also included normal mammary epithelial MCF-10A cells in our experiments to confirm if the growth-inhibitory activities of the selected compounds are truly cancer cell-specific. The activity data from MCF-7 and MDA-MB-453 cell lines (tested at 1 µM, 10 µM and 25 µM) and activity data from MCF-10A cell line (tested at 25 µM, 50 µM and 100 µM) are summarized in Table 3. To evaluate cell viability, the MTT assay was conducted following standard procedures. After 72 h of cell incubation with or without each compound, cell viability was assessed using MTT (3-(4,5-dimethylthiazol-2-yl)-2,5-diphenyltetrazolium bromide), which is a colorimetric method for determining the number of viable cells in various assays including proliferation, cytotoxicity, or chemosensitivity. The MTT reagent was added to the cells after removal of the medium and incubated for 3 h at 37 °C in the CO2 incubator. The formazan product, which is […] in the tissue culture medium, was dissolved in DMSO, and the absorbance of the formazan product was directly measured at 595 nm using a multimode plate reader without additional processing. The absorbance values are directly proportional to the number of viable cells in culture. The percentage of viable cells in each group was determined relative to the untreated control cells.

Data set [4] is described as follows: MTT cell viability assay in normal MCF-10A cells. The class given is cell-based. The following applies: human, MCF-10A normal mammary epithelial cells; MCF-10A normal cells, positive control at 20 nM; read-out: Cell viability (%) ± SD. The protocol: We also included normal mammary epithelial MCF-10A cells in our experiments to confirm if the growth-inhibitory activities of the selected compounds are truly cancer cell-specific. The activity data from MCF-7 and MDA-MB-453 cell lines (tested at 1 µM, 10 µM and 25 µM) and activity data from MCF-10A cell line (tested at 25 µM, 50 µM and 100 µM) are summarized in Table 3. To evaluate cell viability, the MTT assay was conducted following standard procedures. After 72 h of cell incubation with or without each compound, cell viability was assessed using MTT (3-(4,5-dimethylthiazol-2-yl)-2,5-diphenyltetrazolium bromide), which is a colorimetric method for determining the number of viable cells in various assays including proliferation, cytotoxicity, or chemosensitivity. The MTT reagent was added to the cells after removal of the medium and incubated for 3 h at 37 °C in the CO2 incubator. The formazan product, which is […] in the tissue culture medium, was dissolved in DMSO, and the absorbance of the formazan product was directly measured at 595 nm using a multimode plate reader without additional processing. The absorbance values are directly proportional to the number of viable cells in culture. The percentage of viable cells in each group was determined relative to the untreated control cells.

A word on the viability: it is a read-out of living cells in per cent, often relative to untreated cells. In the case of `COCCn1c2c([n+](Cc3cnccn3)c1C)C(=O)c1ccccc1C2=O` [YM155, reference compound], the viability at 0.02 µM in data set [1] (Table 1, MDA-MB-231, MTT, read-out: Cell Viability (%) ± SD) came out at 20.4 ± 5.13%; in data set [1] (Table 2, MDA-MB-231, MTT, read-out: Cell viability (%) ± SD), 26.4 ± 3.93%; in data set [2], 32.2 ± 1.7%; in data set [3], 35.2 ± 1.5%. Besides, in data set [4], the viability at 72 h, 0.02 µM stood at 38.2 ± 1.6%.
